Results: patent publication US20080033007A1, “Substituted Tetrahydroisoquinoline Compounds for Cancer Therapy” (priority 2002, published 2008)
Entries after “also recorded” stand apart in the source; their conditions may differ.

Tests used:
[1] = animal toxicity test, delivery into striatum by mini-osmotic pump; assay type: in vivo, rat; conditions: 5 μM into striatum, five days, Nissl stain; hydrochloride
Experimental: The drug was delivered directly into the striatum of rats at a concentration of 5 μM, two times greater than the estimated EC50 value. […] The rats were sacrificed, brain sections were investigated for any major tissue change in the brain. Brains were fixed in 4% paraformaldehyde, cut in sections and stained by the Nissl method.
The drug was administered into the striatum of rats at 5 μM, which is approximately two times greater than the estimated EC5) value. […] The rats were sacrificed and brain sections were investigated for any major tissue change in the brain. Brains were fixed in 4% paraformaldehyde, cut in sections, and stained by the Nissl method.

C6 glioma = assay: in vivo rat model: C6 glioma cells injected into brain, treatment by osmotic mini pump; conditions: rat hippocampus, 7 days treatment
Description: Approximately 5×10^4 C6 glioma cells were transplanted into a rat brain via a cannula followed by treatment for seven days. Tumor cells are depicted by staining for beta galactosidase.
FIG. 2 is a graph depicting the maximum extent of tumor in a single section.
A rat model system was developed to examine the in vivo efficacy of the compounds of the present invention.
The first step was to produce a cell line with a marker gene. A rat C6 glioma cell line was selected and stably transfected with a β-galactosidase construct. These cells were cultured and prepared for injection into the brain of adult Sprague-Dawley rats to simulate in vivo tumor development.
The animals were anesthetized and a cannula was placed into the brain. Approximately 5×10^4 glioma cells were injected through the cannula. […] The mini osmotic pump delivered 1 μl/hr for 7 days. With the tubing used to connect the pump, there was approximately a 10 hour delay for the treatment to reach the brain.
The section with the largest extent of tumor visible in all of the cases was identified and the cross-sectional area of the tumor was measured.

[2] = test system: MCF7, A549, HeLa, LnCap cancer cell lines; assay: anti-proliferative activity against cancer cell lines, 96 hr; assay type: cell-based; conditions: every type of cancer tested: brain, breast, lung epithelial, cervical, prostate cancer cell lines
Experimental: Cell proliferation was measured and EC50 values were estimated.

[3] = test system: primary cultured cortical astrocytes; assay: effect on primary cultured cortical astrocytes (Example 5); conditions: at EC50 concentrations for the C6 gliomas
C6 rat glioma = assay: differential culture cytotoxicity assay, C6 glioma; conditions: comparison of IC50 values
Experimental: Normal cultured rat astrocytes and C6 rat glioma were used as a differential screen for a variety of 1,2,3,4-tetrahydroisoquinoline derivatives. […] To explore structure activity relationships (SAR) a number of 1,2,3,4-tetrahydroisoquinolines 2, 4, 5, 7, and 8 were synthesized and tested for antiglioma activity.
The astrocytes primary culture was derived from neonatal (4-8 days postpartum) rat pups as described by Geisert et al. The primary cultures were prepared as per McCarthy et al. Briefly, the rat pups were anesthetized on ice, decapitated, and the brains were removed. The cerebral cortex was removed, stripped of the meninges, and cut into small pieces of approximately 1 mm^2. The tissue was placed in 0.1% trypsin for 15 min and gently pipetted to produce a single cell suspension. The cell suspension was then rinsed in media and transferred to culture flasks. […]
The experimental treatment was the incubation of the cells with test compound for 96 h at 37° C., 5% CO2. The cells were fixed with 4% formaldehyde, stained with 0.1% cresylecth violet stain, and quantitated as per Wagner et a. […]
The cytotoxic character of each compound was reported as the percent survival, calculated as the average A560 for treated cells divided by A560 of untreated (negative control) cells, and expressed as a percentage. […]

**Q.** Which results are given for `Cl.Oc1cc2c(cc1O)C(Cc1ccc(-c3ccccc3)cc1)NCC2` (racemic) [MMGS-155]?
**A.** brain damage / tissue change [1]: did not show any sign of brain damage; also recorded: brain tissue appears normal; pathology of normal brain tissue beneath treatment cannula (C6 glioma): Limited pathology; LD50, killing of cancer cells in culture [2]: approximately 3 μM; destruction to astrocytes [3]: only minimal destruction to astrocytes; cytotoxic activity relative to another compound (C6 rat glioma; listed as 1, hydrochloride): more potent; also recorded: at least two-fold higher potency; cytotoxic activity relative to another compound (C6 rat glioma; listed as 1-(biphenyl-4-ylmethyl)-1,2,3,4-tetrahydroisoquinoline-6,7-diol, hydrochloride): increased relative potency
